Assay results reported in paper PMC5080580, “Structural elucidation of estrus urinary lipocalin protein (EULP) and evaluating binding affinity with pheromones using molecular docking and fluorescence study” (Scientific Reports, 2016).

Target: T1, estrus urinary lipocalin protein (EULP)
T1 construct: gene PMP2; native, purified from female rat urine by Sephadex G-50 gel filtration; printed peptides MSNKFL, KFLGTWKLT, KLTSSENFD, NFDEYMKAL, LGTRSLGNL, LAGPTVIIS, ITIRTESGF, GFKNTEISF, FEETTADNR, RKTKSTVTL, KSTVTLAGG, NGNETTIKR, SVVCTRIYE
Experiment: fluorescence binding of 2-naphthol probe
Parameters: species or system Rattus rattus
Details: 10 mM phosphate buffer pH 7.2, room temperature; fluorescent probe

- Kd: 420 ± 60 nM
Structure (SMILES): Oc1ccc2ccccc2c1 [2-naphthol]
